Values quoted from earlier work, collected in patent US20190117852A1, “IMPROVEMENTS IN STENTS FOR THE RELEASE OF ACTIVE PRINCIPLES” (CID S.p.A., priority 2016, published 2019).

Conditions: duration of release; correlated to complete in vitro release at 30 hours

SMILES: CO[C@H]1C[C@@H]2CC[C@@H](C)[C@@](O)(O2)C(=O)C(=O)N2CCCC[C@H]2C(=O)O[C@H]([C@H](C)C[C@@H]2CC[C@@H](O)[C@H](OC)C2)CC(=O)[C@H](C)/C=C(\C)[C@@H](O)[C@@H](OC)C(=O)[C@H](C)C[C@H](C)/C=C/C=C/C=C/1C [Sirolimus]
- in vivo release after coronary implantation: greater than 30 days
